This is an account of results in patent publication US10028960B2, “Pyrimidine compounds as JAK kinase inhibitors” (THERAVANCE BIOPHARMA R&D IP, LLC, priority 2016, dated 2018).

Entries after “also recorded” stand apart in the source; their conditions may differ. Read-outs that look alike come from different tables or passages of the source.

For assay [1], the system named is IFNγ stimulated STAT1 phosphorylation in CD14+ monocytes. Put plainly: Cellular JAK potency assay: inhibition of IFNγ-induced pSTAT1. It counts as cell-based. Conditions: Homo sapiens, Monocyte. The method, then:
The potency of test compounds for inhibition of interferon gamma (IFNγ) stimulated STAT1 phosphorylation was measured in CD14-positive (CD14+) monocytes derived from human whole blood (Stanford Blood Center) using flow cytometry. Because IFNγ signals through JAK, this assay provides a measure of JAK cellular potency.
Monocytes were identified using a fluorescein isothiocyanate (FITC) conjugated anti-CD14 antibody (Clone RM052, Beckman Coulter), and an Alexa Fluor 647 conjugated anti-pSTAT1 antibody (pY701, Clone 4a, BD Biosciences) was used to detect STAT1 phosphorylation.
Human peripheral blood mononuclear cells (PBMC) were isolated from human whole blood of healthy donors using a ficoll gradient. […] Cells were washed twice with FACS buffer, and then resuspended in 1:10 anti-pSTAT1 Alexa Fluor 647:FACS buffer (100 μL) for 30 min at RT in the dark, washed twice in FACS buffer, and analyzed using a LSRII flow cytometer (BD Biosciences).
To determine the inhibitory potency of test compounds, the median fluorescent intensity (MFI) of pSTAT1 was measured in CD14+ monocytes. IC50 values were determined from analysis of the inhibition curves of MFI vs compound concentration. Data are expressed as pIC50 (negative decadic logarithm IC50) values (mean±standard deviation).

A further assay deals with JAK3 (Homo sapiens (Human), UniProt P52333). Nature of the assay: LanthaScreen JAK biochemical assay, JAK3. Conditions: read-out: JAK 3 (pKi) (converted). The method, then:
A panel of four LanthaScreen JAK biochemical assays (JAK1, 2, 3 and Tyk2) were carried in a common kinase reaction buffer (50 mM HEPES, pH 7.5, 0.01% Brij-35, 10 mM MgCl2, and 1 mM EGTA). Recombinant GST-tagged JAK enzymes and a GFP-tagged STAT1 peptide substrate were obtained from Life Technologies.
A general note: TR-FRET usually uses a lanthanide donor and a delayed reading to cut background.

The subject of assay [2] is TPA-induced increase in ear thickness. Nature of the assay: Topical TPA-induced irritant contact dermatitis model in mice. It counts as in vivo, Balb/c mice. Conditions: mouse ear, 6 hours after TPA. The method, then:
The objective of this assay is to assess the anti-inflammatory effect in a model of acute dermatitis of test compounds being studied for cutaneous inflammatory conditions such as atopic dermatitis (Dong et al., J Pharmacol Exp Ther, 2013, 344, 436-446).
Topical dermal application of phorbol ester 12-O-tetradecanoylphorbol-13-acetate (TPA) in mice causes an inflammatory response that is characterized by edema and neutrophil influx at the early phase (2-24 h) and by epidermal cell proliferation at the later phase (24-48 h) (Griffiths et al., Agents and Actions, 1988, 25, 344-351). Female Balb/c mice were topically administered with either vehicle (1:7 DMSO:acetone) or 20 μL of a solution of TPA (2.5 μg) in vehicle on each ear. At 30 min before and 15 min after TPA administration, either vehicle or the compound of Example 2 at doses of 30, 100, 300, 1000, and 3000 μg in vehicle was applied topically to each ear. The degree of inflammation was assessed as the change in ear thickness at 6 hours after TPA application.

The subject of assay [3] is IL-13 induced STAT6 phosphorylation in HT-29 human colorectal adenocarcinoma cells. Put plainly: Cellular JAK potency assay: inhibition of IL-13 induced STAT6 phosphorylation. The format is cell-based. Conditions: Homo sapiens.

Chain of JAK3 (P52333 whole entry): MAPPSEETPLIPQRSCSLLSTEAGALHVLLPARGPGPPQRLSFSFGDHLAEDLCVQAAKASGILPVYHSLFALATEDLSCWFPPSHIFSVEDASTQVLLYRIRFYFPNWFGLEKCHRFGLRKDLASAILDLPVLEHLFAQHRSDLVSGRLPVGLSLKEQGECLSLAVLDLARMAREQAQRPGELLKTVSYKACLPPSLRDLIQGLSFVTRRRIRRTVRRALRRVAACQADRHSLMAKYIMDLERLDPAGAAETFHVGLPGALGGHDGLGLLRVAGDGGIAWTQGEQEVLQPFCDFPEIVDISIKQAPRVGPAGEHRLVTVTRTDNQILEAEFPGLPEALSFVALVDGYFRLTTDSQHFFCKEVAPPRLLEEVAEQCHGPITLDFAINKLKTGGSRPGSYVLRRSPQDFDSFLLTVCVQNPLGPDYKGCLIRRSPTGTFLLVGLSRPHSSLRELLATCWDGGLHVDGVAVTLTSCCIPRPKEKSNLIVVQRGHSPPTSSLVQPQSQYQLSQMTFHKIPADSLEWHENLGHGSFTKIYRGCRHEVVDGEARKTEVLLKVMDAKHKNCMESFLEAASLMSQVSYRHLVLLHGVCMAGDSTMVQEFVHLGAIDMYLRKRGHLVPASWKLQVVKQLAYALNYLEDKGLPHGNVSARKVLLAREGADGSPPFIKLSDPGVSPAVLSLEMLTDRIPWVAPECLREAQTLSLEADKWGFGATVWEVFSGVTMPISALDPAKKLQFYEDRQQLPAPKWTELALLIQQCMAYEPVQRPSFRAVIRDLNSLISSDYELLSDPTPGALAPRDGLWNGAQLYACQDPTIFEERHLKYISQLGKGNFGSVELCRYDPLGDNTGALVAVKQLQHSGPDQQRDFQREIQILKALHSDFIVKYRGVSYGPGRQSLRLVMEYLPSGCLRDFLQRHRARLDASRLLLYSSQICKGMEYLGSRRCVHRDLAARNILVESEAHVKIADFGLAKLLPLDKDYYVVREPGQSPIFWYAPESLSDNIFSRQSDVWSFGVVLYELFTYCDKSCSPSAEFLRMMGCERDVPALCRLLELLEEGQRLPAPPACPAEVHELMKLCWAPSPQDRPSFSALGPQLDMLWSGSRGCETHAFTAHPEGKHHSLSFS

As to `COc1cc(Nc2cc(CO)[nH]n2)nc(N(C)[C@@H]2C[C@H]3CCC[C@@H](C2)N3S(=O)(=O)N2CC(C#N)C2)n1` [Example 2, 1-(((1R,3s,5S)-3-((4-((5-(Hydroxymethyl)-1H-pyrazol-3-yl)amino)-6-methoxypyrimidin-2-yl)(methyl)amino)-9-azabicyclo[3.3.1]nonan-9-yl)sulfonyl)azetidine-3-carbonitrile], the IC50 in assay [1] (IFNγ-induced pSTAT1, CD14+ monocytes, read-out: pIC50 value (converted)) was ~25.1 nM; in assay [1] (cellular assay, Assay 5, read-out: IC50 for inhibition of IFNγ), ≤ 50 nM; in assay [3] (HT-29, cellular assay, Assay 2, read-out: IC50 for inhibition of IL-13), ≤ 50 nM; in assay [3] (IL-13 induced STAT6 phosphorylation, HT-29 cells, read-out: HT-29 (pIC50) (converted)) it was 31.6 to 200 nM. The Ki at JAK3 was 0.1 to 1 nM. Further, in assay [2] (topical 30-3000 μg), the “inhibition of TPA-induced increase in ear thickness (in words)” value was “dose- and concentration-dependent effect; also recorded: dose- and concentration-dependent inhibition”. Moreover, the “maximum statistically significant inhibition of TPA-induced increase in ear thickness” value in assay [2] (topical, 1000 μg dose) came out at 41%.
